Experimental data: PMC11189026 (Chemical communications (Cambridge, England), 2024)

Legend:
aminopeptidase = test: Aminopeptidase challenge of cyclised and uncyclised lanthipeptides; conditions: compared to the uncyclised compounds; Fig. S7
αvβ3 integrin [1] = molecular target: αvβ3 integrin (Homo sapiens, UniProt P05106+P06756); assay type: binding; conditions: ratio of Ki values, FP competition
αvβ3 integrin [2] = molecular target: αvβ3 integrin (UniProt P06756 31-1048; P05106 27-788); test: fluorescence polarisation; competition of the lanthipeptides against fluorescently labelled c(RGDyK) for αvβ3 integrin; Ki from competition curves; conditions: both partners purified
Sequence of αvβ3 integrin (UniProt P06756 31-1048; P05106 27-788) (P06756 31-1048, chain 1 of 2): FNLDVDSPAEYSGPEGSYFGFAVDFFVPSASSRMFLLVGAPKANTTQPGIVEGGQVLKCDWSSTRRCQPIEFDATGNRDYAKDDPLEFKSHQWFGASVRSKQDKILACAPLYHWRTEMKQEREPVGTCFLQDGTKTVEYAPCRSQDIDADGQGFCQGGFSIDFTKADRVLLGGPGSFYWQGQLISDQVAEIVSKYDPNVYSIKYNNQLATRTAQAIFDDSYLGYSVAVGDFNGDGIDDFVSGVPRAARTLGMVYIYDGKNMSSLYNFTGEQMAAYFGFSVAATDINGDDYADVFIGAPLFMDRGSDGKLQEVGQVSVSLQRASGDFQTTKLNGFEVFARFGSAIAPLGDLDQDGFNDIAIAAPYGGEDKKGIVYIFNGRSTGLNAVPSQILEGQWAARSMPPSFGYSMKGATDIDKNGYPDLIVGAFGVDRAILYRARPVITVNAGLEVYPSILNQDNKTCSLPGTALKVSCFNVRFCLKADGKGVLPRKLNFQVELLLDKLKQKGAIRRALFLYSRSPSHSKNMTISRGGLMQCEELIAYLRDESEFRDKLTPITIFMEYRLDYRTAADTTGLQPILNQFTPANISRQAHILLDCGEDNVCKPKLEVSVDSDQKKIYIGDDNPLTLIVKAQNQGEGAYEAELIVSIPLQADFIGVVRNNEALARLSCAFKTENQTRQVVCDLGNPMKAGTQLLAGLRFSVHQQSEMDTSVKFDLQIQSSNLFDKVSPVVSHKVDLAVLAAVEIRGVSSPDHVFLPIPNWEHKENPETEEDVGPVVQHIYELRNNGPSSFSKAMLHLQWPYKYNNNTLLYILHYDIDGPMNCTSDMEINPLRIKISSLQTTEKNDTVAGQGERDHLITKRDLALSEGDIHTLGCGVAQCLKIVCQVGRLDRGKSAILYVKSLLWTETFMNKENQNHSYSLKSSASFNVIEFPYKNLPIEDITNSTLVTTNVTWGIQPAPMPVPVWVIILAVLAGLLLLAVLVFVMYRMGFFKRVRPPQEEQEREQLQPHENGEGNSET
Sequence of αvβ3 integrin (UniProt P06756 31-1048; P05106 27-788) (P05106 27-788, chain 2 of 2): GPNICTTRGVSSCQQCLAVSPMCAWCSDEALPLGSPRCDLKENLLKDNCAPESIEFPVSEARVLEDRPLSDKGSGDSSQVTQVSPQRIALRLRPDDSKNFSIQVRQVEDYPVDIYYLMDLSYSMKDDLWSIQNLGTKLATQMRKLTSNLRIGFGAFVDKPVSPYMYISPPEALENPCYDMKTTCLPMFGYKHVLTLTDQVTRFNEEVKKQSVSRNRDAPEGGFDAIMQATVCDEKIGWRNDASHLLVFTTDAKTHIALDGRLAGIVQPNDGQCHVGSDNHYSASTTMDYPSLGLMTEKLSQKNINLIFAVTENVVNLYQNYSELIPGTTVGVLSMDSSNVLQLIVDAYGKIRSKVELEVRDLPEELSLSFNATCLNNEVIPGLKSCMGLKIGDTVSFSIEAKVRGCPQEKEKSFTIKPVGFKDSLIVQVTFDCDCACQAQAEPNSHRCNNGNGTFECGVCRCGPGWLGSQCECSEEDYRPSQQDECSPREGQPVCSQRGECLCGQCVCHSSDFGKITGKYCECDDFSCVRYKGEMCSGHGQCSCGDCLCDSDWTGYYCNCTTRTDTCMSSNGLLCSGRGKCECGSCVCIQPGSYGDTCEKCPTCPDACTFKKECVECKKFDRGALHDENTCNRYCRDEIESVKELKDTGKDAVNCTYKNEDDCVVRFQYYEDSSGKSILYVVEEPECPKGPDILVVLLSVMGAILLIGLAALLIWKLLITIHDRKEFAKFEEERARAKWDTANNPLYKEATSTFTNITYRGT

Sequence of αvβ3 integrin (Homo sapiens, UniProt P05106+P06756) (P06756 31-992 limits assumed): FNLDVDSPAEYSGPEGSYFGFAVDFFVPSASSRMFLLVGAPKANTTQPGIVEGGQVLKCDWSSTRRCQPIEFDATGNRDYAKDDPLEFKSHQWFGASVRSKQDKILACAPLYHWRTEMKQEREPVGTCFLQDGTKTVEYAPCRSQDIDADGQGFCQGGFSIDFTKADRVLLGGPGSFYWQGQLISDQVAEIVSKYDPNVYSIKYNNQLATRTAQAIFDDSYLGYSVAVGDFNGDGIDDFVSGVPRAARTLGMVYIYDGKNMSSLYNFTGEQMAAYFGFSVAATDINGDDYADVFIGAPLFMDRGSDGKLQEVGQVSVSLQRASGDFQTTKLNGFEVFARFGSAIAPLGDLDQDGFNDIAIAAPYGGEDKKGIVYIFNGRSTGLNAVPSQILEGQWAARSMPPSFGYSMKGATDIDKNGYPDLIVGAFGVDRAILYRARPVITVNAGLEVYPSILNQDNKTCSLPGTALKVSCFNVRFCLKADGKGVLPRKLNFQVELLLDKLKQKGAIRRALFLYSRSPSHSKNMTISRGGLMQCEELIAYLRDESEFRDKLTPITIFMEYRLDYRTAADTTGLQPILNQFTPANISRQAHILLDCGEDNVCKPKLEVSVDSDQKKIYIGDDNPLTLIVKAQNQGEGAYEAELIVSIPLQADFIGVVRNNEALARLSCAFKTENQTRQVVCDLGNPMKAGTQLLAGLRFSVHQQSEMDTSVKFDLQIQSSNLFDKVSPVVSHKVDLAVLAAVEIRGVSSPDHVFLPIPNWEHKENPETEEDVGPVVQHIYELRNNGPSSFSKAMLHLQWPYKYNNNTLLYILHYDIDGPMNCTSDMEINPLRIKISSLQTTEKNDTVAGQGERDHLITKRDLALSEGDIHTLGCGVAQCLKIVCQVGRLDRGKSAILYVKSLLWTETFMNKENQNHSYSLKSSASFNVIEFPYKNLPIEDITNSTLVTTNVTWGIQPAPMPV
Sequence of αvβ3 integrin (Homo sapiens, UniProt P05106+P06756) (P05106 27-718 limits assumed): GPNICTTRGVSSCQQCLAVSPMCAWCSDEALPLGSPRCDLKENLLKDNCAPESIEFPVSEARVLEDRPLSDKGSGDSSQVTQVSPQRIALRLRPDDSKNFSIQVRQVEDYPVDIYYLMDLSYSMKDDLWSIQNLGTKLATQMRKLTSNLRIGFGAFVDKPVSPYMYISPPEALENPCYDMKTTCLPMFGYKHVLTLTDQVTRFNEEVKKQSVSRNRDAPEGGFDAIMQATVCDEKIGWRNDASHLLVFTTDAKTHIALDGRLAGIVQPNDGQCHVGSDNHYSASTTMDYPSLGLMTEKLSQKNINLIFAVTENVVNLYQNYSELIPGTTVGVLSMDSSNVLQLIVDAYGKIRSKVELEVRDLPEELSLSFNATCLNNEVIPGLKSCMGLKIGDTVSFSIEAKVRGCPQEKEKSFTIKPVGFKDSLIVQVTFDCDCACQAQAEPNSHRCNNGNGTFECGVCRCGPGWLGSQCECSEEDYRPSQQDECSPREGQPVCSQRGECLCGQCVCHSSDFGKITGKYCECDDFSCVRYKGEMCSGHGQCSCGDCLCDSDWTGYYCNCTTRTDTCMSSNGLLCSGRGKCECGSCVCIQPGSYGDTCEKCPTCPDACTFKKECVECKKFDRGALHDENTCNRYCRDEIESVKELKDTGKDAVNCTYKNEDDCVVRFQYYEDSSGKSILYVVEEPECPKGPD

| Molecule | resistance to aminopeptidase (aminopeptidase) | fold higher affinity for αvβ3 integrin, N-to-C cyclised vs noncyclised (αvβ3 integrin [1]) | Ki (αvβ3 integrin [2]) |
| --- | --- | --- | --- |
| CSCC[C@@H]1NC(=O)[C@H]2CSC[C@H](NC(=O)[C@H](C)NC(=O)[C@H](C)NC(=O)[C@H](CC(N)=O)NC(=O)[C@@H]3CSC[C@@H](NC(=O)[C@@H]4CCCN4C(=O)[C@@H]4CCCN4C1=O)C(=O)N[C@@H](Cc1ccc(O)cc1)C(=O)N[C@@H](Cc1c[nH]c4ccccc14)C(=O)N[C@@H](CCCNC(=N)N)C(=O)NCC(=O)N[C@@H](CC(=O)O)C(=O)N3)C(=O)N[C@@H](Cc1c[nH]cn1)C(=O)N[C@@H](CC(N)=O)C(=O)N[C@@H](Cc1c[nH]cn1)C(=O)N[C@@H](C)C(=O)N1CCC[C@H]1C(=O)N2 [c16RGD] | resistant to aminopeptidase |  |  |
| CSCC[C@@H]1NC(=O)[C@H]2CSC[C@H](NC(=O)[C@H](C)NC(=O)[C@H](C)NC(=O)[C@H](CC(N)=O)NC(=O)[C@@H]3CSC[C@@H](NC(=O)[C@@H]4CCCN4C(=O)[C@@H]4CCCN4C1=O)C(=O)N[C@@H](Cc1ccc(O)cc1)C(=O)N[C@@H](CCCNC(=N)N)C(=O)NCC(=O)N[C@@H](CC(=O)O)C(=O)N[C@@H](CCC(=O)O)C(=O)N3)C(=O)N[C@@H](Cc1c[nH]cn1)C(=O)N[C@@H](CC(N)=O)C(=O)N[C@@H](Cc1c[nH]cn1)C(=O)N[C@@H](C)C(=O)N1CCC[C@H]1C(=O)N2 [c15RGD] | resistant to aminopeptidase | 4 fold |  |
| cyclo(AACHNHAPSMPPSYWRGDCN) (thioether (positions not given here); also: lanthionine linkages installed by ProcM, places not given here, thioether: lanthionine) [N-to-C cyclised prochlorosin 16RGD (OaAEP1-cyclised lanthipeptide)] |  |  | 0.28 ± 0.03 µM |
| cyclo(AACHNHAPSMPPSYRGDECN) (thioether (positions not given here); also: lanthionine linkages installed by ProcM, places not given here, thioether: lanthionine) [N-to-C cyclised prochlorosin 15RGD (OaAEP1-cyclised lanthipeptide)] |  |  | 7.7 ± 1.3 µM |
